# Laboratory results reported in patent publication US12630604B2, “Methods of making chimeric antigen receptor-expressing cells” (Novartis AG, priority 2018, dated 2026).
# Entries after “also recorded” stand apart in the source; their conditions may differ.
# Experiments:
# Assay type in all cases: cell-based
# T cells [1] = assay: ARM-BCMA CAR expression kinetics in vitro with or without AZT (FACS); conditions: 30 μM and 100 μM doses
# Method: In contrast to TM which measures lentiviral integration of the CAR transgene after 8-9 days, in the ARM process, the lentiviral transgene may not be fully integrated and truly expressed within 24 h post lentiviral addition, as lentiviral pseudotransduction could occur (Haas D L, et al., (2000) Mol Ther; 2(1):71-80; Galla M, et al., (2004) Mol Cell; 16(2):309-15). Therefore, the BCMA-CAR expression pattern was evaluated over time by extended culturing of ARM-BCMA CAR in vitro in the presence or absence of 3′-azido-3′-deoxythymidine (AZT) to evaluate the potential pseudotransduction versus stable integration and expression of the CAR transgene. Flow cytometry (FACS) analyses were performed to detect CAR surface expression at 24 h, 48 h, 72 h, 96 h and 168 h post T cell activation and transduction with the lentiviral vector. In some cases, ARM-BCMA CAR and an aliquot of this product were frozen down immediately upon harvest for additional characterization in other assays.
# T cells [2] = assay: T cell differentiation status by flow cytometry (CCR7/CD45RO), cytokine process; conditions: purified T cells cultured with cytokine 24 hours, no CD3/CD28 stimulation
# Method: The cells were immunophenotyped for T cell differentiation status and transduction of the CAR was assessed using flow cytometry. The cells were washed, viability dye was added followed by the antibody cocktail (Table 20), and the plates were incubated for 20 minutes at room temperature. After the incubation, the cells were washed twice and fixed prior to being analyzed on the BD fortessa.
# IL6Rβ expressing cells = assay: Cell surface staining (IL6Rα/IL6Rβ and differentiation markers); conditions: after TCR engagement
# Text: Cells were harvested at indicated time points and then stained with live/dead dye (eFluro780, eBioscience), CD3 (BioLegend, clone #: OKT3), CD4 (BioLegend, clone #: OKT4), CD8 (BD Bioscience, clone #: RPA-T8), CD45RO (BioLegend, clone #: UCHL1), CCR7 (BioLegend, clone #: G043H7), CD27 (BD Horizon, clone #: L128), CD127 (BioLegend, clone #: A019D5), CD57 (BioLegend, clone #: HCD57), CD126 (BioLegend, clone #: UV4), and CD130 (R&D Systems, clone #: 28126) antibodies. The cells were acquired by FACS Fortessa and then FlowJo program was used for data analysis.
# T cells [3] = assay: T cell culture with cytokines after αCD3/αCD28 bead activation (expansion, size, viability); conditions: for T cell expansion: T cells activated with αCD3αCD28 beads at day 0 in presence of cytokine; for cell size and viability: after TCR engagement
# Method: Previously frozen T cells were thawed and contacted with αCD3/αCD28 dynal beads (cell to bead ratio of 1 to 3) in the presence of indicated cytokines at day 0. From day 3, twice more T cell growth media (RPMI1640, 10% FBS, 2 mM L-glutamin, 100 μM non-essential amino acids, 1 mM sodium pyruvate, 10 mM Hepes, 55 μM β-mercaptoethanol, 10% FBS, and 100 U/ml of penicillin-streptomycin) was added to the plate with indicated cytokines (without cytokine, rhIL2 (501 U/ml, Novartis), IL6 (10 ng/ml, R&D systems), IL7 (10 ng/ml, Peprotech), IL15 (10 ng/ml, Peprotech), and IL21 (10 ng/ml, Peprotech)) at day 3, 5, 6, 9, 12, 15, and 18.
Molecule,inhibition of CAR expression (T cells [1]),maintenance of self-renewing / naïve T cells (CD45RO−CCR7+) (T cells [2]),expansion of IL6Rβ expressing cells (IL6Rβ expressing cells),T cell expansion (T cells [3]),cell size and viability (T cells [3])
"Cc1cn([C@H]2C[C@H](N=[N+]=[N-])[C@@H](CO)O2)c(=O)[nH]c1=O [AZT, 3′-azido-3′-deoxythymidine]",effectively inhibit CAR expression,,,,
IL-15: cytokine,,maintained self-renewing T cells in vitro,enhanced expansion of IL6Rβ expressing cells,enhanced T cell expansion; also recorded: the greatest enhancement,did not affect cell size and viability
"IL7: cytokine (protein, UniProt P13232 26-177, looked up) Interleukin-7: DCDIEGKDGKQYESVLMVSIDQLLDSMKEIGSNCLNNEFNFFKRHICDANKEGMFLFRAARKLRQFLKMNSTGDFDLHLLKVSEGTTILLNCTGQVKGRKPAALGEAQPTKSLEENKSLKEQKKLNDLCFLKRLLQEIKTCWNKILMGTKEH",,,,enhanced T cell expansion,did not affect cell size and viability
